Source: patent publication US10787413B2, “Derivatives of curcuminoids and use thereof as an anticancer agent” (CHINA MEDICAL UNIVERSITY, priority 2016, dated 2020)

Test system: MDA-MB-231 cells
Assay: cDNA microarray
Format: cell-based, human
Procedure: The cells were incubated with or without 21a. After exposure, cell pellets were collected, and the total RNA from each treatment was purified using the Qiagen RNeasy Mini Kit (Qiagen, Valencia, Calif., USA). The RNA purity was determined to check the quality at 260/280 nm using a NanoDrop 1000 Spectrophotometer (Thermo Fisher Scientific, Wilmington, Del., USA). mRNA was amplified and labeled using the Gene-Chip WT Sense Target Labeling and Control Reagents kit (Affymetrix, Santa Clara, Calif., USA) for expression analysis. The synthesized cDNA was labeled with fluorescence and then hybridized for 17 h using AffymetrixGeneChip Human Gene 1.0 ST array (Affymetrix) to determine microarray hybridization following the manufacturer's protocols. The arrays were subsequently washed using Fluidics Station 450 (Affymetrix), stained with streptavidin-phycoerythrin (Gene-Chip Hybridization, Wash, and Stain kit, Affymetrix), and scanned on a GeneChip Scanner 3000 (Affymetrix). The localized concentrations of fluorescent molecules were quantitated and analyzed using Expression Console Software (Affymetrix) with default RMA parameters as previously described (Chang et al. 2012; Liu et al. 2013). […]

Compound: COc1cc(/C=C/C(=O)/C=C(O)/C=C/c2ccc(OC(=O)C(C)(CO)CO)c(OC)c2)ccc1OC(=O)C(C)(CO)CO [Compound 21a, ((1E,3Z,6E)-3-Hydroxy-5-oxohepta-1,3,6-triene-1,7-diyl)bis(2-methoxy-4,1-phenylene) bis(3-hydroxy-2-(hydroxymethyl)-2-methylpropenoate)]
- genes down-regulated (at least 2.5 folds): 28 genes
- genes up-regulated (at least 2.5 folds): 69 genes
- log2 (Ratio) ATF3 (mRNA, MDA-MB-231 cells, 24-h treatment, ID PH_hs_0000057): 3.698
- log2 (Ratio) IL12A (mRNA, MDA-MB-231 cells, 24-h treatment, ID PH_hs_0000076): 4.587
- log2 (Ratio) DUSP2 (mRNA, MDA-MB-231 cells, 24-h treatment, ID PH_hs_0000156): 4.094
- log2 (Ratio) SRGN (mRNA, MDA-MB-231 cells, 24-h treatment, ID PH_hs_0000255): 2.917
- log2 (Ratio) MMP10 (mRNA, MDA-MB-231 cells, 24-h treatment, ID PH_hs_0000305): 4.942
- log2 (Ratio) SLC25A25 (mRNA, MDA-MB-231 cells, 24-h treatment, ID PH_hs_0000566): 2.529
- log2 (Ratio) DNAJB9 (mRNA, MDA-MB-231 cells, 24-h treatment, ID PH_hs_0000684): 3.854
- log2 (Ratio) RND3 (mRNA, MDA-MB-231 cells, 24-h treatment, ID PH_hs_0000694): 2.626
- log2 (Ratio) SESN2 (mRNA, MDA-MB-231 cells, 24-h treatment, ID PH_hs_0000852): 3.324
- log2 (Ratio) OMA1 (mRNA, MDA-MB-231 cells, 24-h treatment, ID PH_hs_0000866): −2.613
- log2 (Ratio) SENP5 (mRNA, MDA-MB-231 cells, 24-h treatment, ID PH_hs_0001262): 2.748
- log2 (Ratio) SAT1 (mRNA, MDA-MB-231 cells, 24-h treatment, ID PH_hs_0002492): 3.366
- log2 (Ratio) OSGEN1 (mRNA, MDA-MB-231 cells, 24-h treatment, ID PH_hs_0002700): 3.513
- log2 (Ratio) C18orf25 (mRNA, MDA-MB-231 cells, 24-h treatment, ID PH_hs_0002812): 2.668
- log2 (Ratio) ZNF77 (mRNA, MDA-MB-231 cells, 24-h treatment, ID PH_hs_0002971): 2.665
- log2 (Ratio) PDGFC (mRNA, MDA-MB-231 cells, 24-h treatment, ID PH_hs_0003147): −2.534
- log2 (Ratio) SMIM13 (mRNA, MDA-MB-231 cells, 24-h treatment, ID PH_hs_0003180): 2.646
- log2 (Ratio) PPP1R15A (mRNA, MDA-MB-231 cells, 24-h treatment, ID PH_hs_0004421): 5.381
- log2 (Ratio) GEM (mRNA, MDA-MB-231 cells, 24-h treatment, ID PH_hs_0004561): 3.997
- log2 (Ratio) MMP1 (mRNA, MDA-MB-231 cells, 24-h treatment, ID PH_hs_0004751): 3.219
- log2 (Ratio) LMNB1 (mRNA, MDA-MB-231 cells, 24-h treatment, ID PH_hs_0004988): −2.878
- log2 (Ratio) ZFAND2A (mRNA, MDA-MB-231 cells, 24-h treatment, ID PH_hs_0006387): 6.274
- log2 (Ratio) F2R (mRNA, MDA-MB-231 cells, 24-h treatment, ID PH_hs_0007383): −2.717
- log2 (Ratio) TOP2A (mRNA, MDA-MB-231 cells, 24-h treatment, ID PH_hs_0009437): −3.052
- log2 (Ratio) DUSP1 (mRNA, MDA-MB-231 cells, 24-h treatment, ID PH_hs_0010276): 4.189
- log2 (Ratio) TXNIP|LOC101060503 (mRNA, MDA-MB-231 cells, 24-h treatment, ID PH_hs_0010634): −2.66
- log2 (Ratio) H1F0 (mRNA, MDA-MB-231 cells, 24-h treatment, ID PH_hs_0012629): −2.89
- log2 (Ratio) BRF2 (mRNA, MDA-MB-231 cells, 24-h treatment, ID PH_hs_0014119): 2.572
- log2 (Ratio) HSPA1B (mRNA, MDA-MB-231 cells, 24-h treatment, ID PH_hs_0014155): 2.836
- log2 (Ratio) METTL7A (mRNA, MDA-MB-231 cells, 24-h treatment, ID PH_hs_0014995): −3.653
- log2 (Ratio) CLK1 (mRNA, MDA-MB-231 cells, 24-h treatment, ID PH_hs_0020147): 2.804
- log2 (Ratio) DNAJC3 (mRNA, MDA-MB-231 cells, 24-h treatment, ID PH_hs_0021974): 3.011
- log2 (Ratio) CLCF1 (mRNA, MDA-MB-231 cells, 24-h treatment, ID PH_hs_0022919): 2.961
- log2 (Ratio) FRS2 (mRNA, MDA-MB-231 cells, 24-h treatment, ID PH_hs_0023008): 3.242
- log2 (Ratio) C21orf91 (mRNA, MDA-MB-231 cells, 24-h treatment, ID PH_hs_0023556): 2.733
- log2 (Ratio) HSPA5 (mRNA, MDA-MB-231 cells, 24-h treatment, ID PH_hs_0023711): 2.599
- log2 (Ratio) BBS2 (mRNA, MDA-MB-231 cells, 24-h treatment, ID PH_hs_0023845): −3.269
- log2 (Ratio) CBY1 (mRNA, MDA-MB-231 cells, 24-h treatment, ID PH_hs_0023862): −2.551
- log2 (Ratio) TRIB3 (mRNA, MDA-MB-231 cells, 24-h treatment, ID PH_hs_0023894): 2.584
- log2 (Ratio) CDKN1A (mRNA, MDA-MB-231 cells, 24-h treatment, ID PH_hs_0024155): 2.904
- log2 (Ratio) ATP2A2 (mRNA, MDA-MB-231 cells, 24-h treatment, ID PH_hs_0024236): 2.548
- log2 (Ratio) DNAJB4 (mRNA, MDA-MB-231 cells, 24-h treatment, ID PH_hs_0024315): 3.075
- log2 (Ratio) C3orf52 (mRNA, MDA-MB-231 cells, 24-h treatment, ID PH_hs_0025319): 3.562
- log2 (Ratio) CLU (mRNA, MDA-MB-231 cells, 24-h treatment, ID PH_hs_0025525): 3.198
- log2 (Ratio) CTDSP1 (mRNA, MDA-MB-231 cells, 24-h treatment, ID PH_hs_0025966): −2.552
- log2 (Ratio) RMND5A (mRNA, MDA-MB-231 cells, 24-h treatment, ID PH_hs_0027152): 3.038
- log2 (Ratio) SLC3A2 (mRNA, MDA-MB-231 cells, 24-h treatment, ID PH_hs_0027162): 2.961
- log2 (Ratio) GADD45B (mRNA, MDA-MB-231 cells, 24-h treatment, ID PH_hs_0027209): 2.665
- log2 (Ratio) FAM20C (mRNA, MDA-MB-231 cells, 24-h treatment, ID PH_hs_0027843): −2.724
- log2 (Ratio) LRRC45 (mRNA, MDA-MB-231 cells, 24-h treatment, ID PH_hs_0027863): −2.718
- log2 (Ratio) ABL2 (mRNA, MDA-MB-231 cells, 24-h treatment, ID PH_hs_0027902): 4.287
